Measured values reported in paper PMC11434480, “Discovery and Optimization of Ergosterol Peroxide Derivatives as Novel Glutaminase 1 Inhibitors for the Treatment of Triple-Negative Breast Cancer” (Molecules, 2024).

Columns and labels:
A549 = assay: MTT antiproliferative assay, A549; type: cell-based, human; conditions: Homo sapiens, A549, 48 h, mean of three experiments ± SD
Method: (§2) The in vitro antiproliferative activity of the novel EP derivatives (1a–h, 2a–h, 3a–h, and 4a–h) was evaluated on four different human cancer cell lines (A549, HepG2, MCF-7, and MDA-MB-231) using an MTT assay.
(§3) Cells containing 10% fetal bovine serum (FBS; WISENT, Nanjing, China) were cultured in an L-15 culture medium (L-15, BOSTER, Wuhan, China) in an incubator at 37 °C. The cells were then inoculated into 96-well plates at a density of 5 × 10^3/well, cultured in 100 μL L-15 medium for 24 h, and incubated with the compound to be tested for 48 h. Next, 20 μL of MTT (5 mg/mL) solution was added and incubated at 37 °C for 4 h away from light. A resorption culture medium was then supplemented with 150 μL DMSO per well. The absorbance was measured at 570 nm using an enzymometer (SAFIRE2, Tecan, Swiss Confederation, Männedorf, Switzerland). The cytotoxic activity was presented in terms of half the inhibition rate.

HepG2 = assay: MTT antiproliferative assay, HepG2; type: cell-based, human; conditions: Homo sapiens, HepG2, 48 h, mean of three experiments ± SD
Method: as §2, §3

MCF-7 = assay: MTT antiproliferative assay, MCF-7; type: cell-based, human; conditions: Homo sapiens, MCF7, 48 h, mean of three experiments ± SD
Method: as §2, §3

MDA-MB-231 = assay: MTT antiproliferative assay, MDA-MB-231; type: cell-based, human; conditions: for IC50: Homo sapiens, MDA-MB-231, MTT, 48 h, mean of three experiments ± SD
Method: as §2, §3

human GLS1 = target: T1, human GLS1 (Homo sapiens, UniProt O94925); assay: GLS1 inhibitor screening kit in MDA-MB-231 cells; type: cell-based; conditions: 48 h, read-out: GLS1 inhibition IC50
T1 sequence (O94925 55-669): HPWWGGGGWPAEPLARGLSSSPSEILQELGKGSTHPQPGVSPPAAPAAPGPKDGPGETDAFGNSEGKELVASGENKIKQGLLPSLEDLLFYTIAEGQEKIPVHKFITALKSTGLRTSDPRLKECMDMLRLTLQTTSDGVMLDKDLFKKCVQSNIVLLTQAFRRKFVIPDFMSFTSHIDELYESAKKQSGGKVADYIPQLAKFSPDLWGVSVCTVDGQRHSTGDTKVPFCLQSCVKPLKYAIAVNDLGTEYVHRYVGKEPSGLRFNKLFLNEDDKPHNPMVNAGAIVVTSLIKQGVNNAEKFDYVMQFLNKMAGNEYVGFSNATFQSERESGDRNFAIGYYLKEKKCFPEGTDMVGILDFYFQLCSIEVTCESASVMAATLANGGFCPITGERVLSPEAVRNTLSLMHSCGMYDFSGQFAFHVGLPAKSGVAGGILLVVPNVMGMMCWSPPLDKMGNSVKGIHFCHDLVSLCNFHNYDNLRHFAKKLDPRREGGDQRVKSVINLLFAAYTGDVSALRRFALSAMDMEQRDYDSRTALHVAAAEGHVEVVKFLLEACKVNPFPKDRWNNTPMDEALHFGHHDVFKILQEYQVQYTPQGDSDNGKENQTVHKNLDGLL
Method: The GLS1 inhibitory activity of compound 3g in MDA-MB-231 cells was evaluated using a GLS1 inhibitor screening kit.
MDA-MB-231 cells were cultured for 24 h and then incubated with different concentrations of 3g or 0.1%DMSO for 48 h and washed with PBS 1–2 times. The cells were then collected, subjected to ultrasound in an ice bath for 5 min, and centrifuged at 4 °C and 1200 g for 15 min. Next, the GLS1 activity in human GLS1 was evaluated according to the manufacturer’s guidelines using a GLS1 screening kit (Sangon Biotech #D799306, Shanghai, China) in a 96-well plate (Corning # 351172, New York, NY, USA).

MDA-MB-231 cells [1] = assay: Colony formation assay; type: cell-based; conditions: Homo sapiens, MDA-MB-231 colony formation, vs blank control, read-out: proliferation inhibition rate
Method: To explore the inhibitory effect of 3g on the proliferation of MDA-MB-231 cells, we treated MDA-MB-231 cells with different concentrations of 3g and EP.
MDA-MB-231 cells (1000 cells/well) were seeded into a 6-well plate with 2 mL L–15 culture medium and incubated at 37 °C for 24 h. Following this process, different concentrations of 3g or EP were added and incubated for an additional 24 h before the culture medium was replaced. The cells then continued to be cultured for two weeks, with the culture medium being changed twice a week. After two weeks, the cell colonies were washed with PBS, fixed using a 4% paraformaldehyde solution (Beyotime, Shanghai, China), and subsequently stained with a 0.05% crystal violet solution (Beyotime, Shanghai, China).

MDA-MB-231 cells [2] = assay: Annexin V-FITC/PI apoptosis assay (flow cytometry); type: cell-based, human; conditions: Annexin V-FITC/PI double staining, 48 h
Method: (§1) To determine whether the decrease in MDA-MB-231 cell viability observed after 3g treatment was related to apoptosis, we treated MDA-MB-231 cells with 3g and assessed the changes in apoptosis.
An Annexin V FITC/PI apoptosis detection kit (Keygen Company, Nanjing, China) was employed to identify apoptotic cells. Briefly, MDA-MB-231 cells were subjected to treatment with varying concentrations of 3g or 0.1% DMSO and incubated at 37 °C for 48 h. Subsequently, the cells were harvested and resuspended in PBS at a concentration of 1 × 10^5 cells/mL. Following centrifugation at 2000 rpm/min for 5 min, 500 μL binding buffer, 5 μL Annexin V FITC, and 5 μL propidium iodide (PI) were added. The mixture was then incubated at room temperature in the absence of light for 20 min. Finally, the samples were analyzed using FACSCalibur flow cytometry (Becton, Dickinson and Company, Franklin Lakes, USA).

MDA-MB-231 cells [3] = type: cell-based, human; conditions: 2, 4 and 8 μM, 48 h
MDA-MB-231 cells [4] = assay: ROS assay (DCFH-DA, confocal microscopy and flow cytometry); type: cell-based, human; conditions: MDA-MB-231, different concentrations, 48 h
Method: Excessive ROS in tumor cells can induce tumor cell apoptosis. Nevertheless, the ROS levels in tumor cells were often influenced by glutamine. Thus, the regulation of glutamine metabolism was crucial for ROS homeostasis. In this study, laser confocal microscopy and flow cytometry were employed to detect the ROS level.
MDA-MB-231 cells were inoculated in 24-well plates at a density of 8 × 10^3 cells per well and incubated with different concentrations of 3 g or 0.1% DMSO for 48 h. The cells were washed with PBS 1–2 times. The cells were then incubated at 37 °C for 20 min with reference to a DCFH-DA fluorescent probe kit (Keygen Company, Nanjing, China) and washed with a serum-free medium 1–2 times. The ROS levels were observed via laser confocal microscopy (LSM710, Zeiss, Oberkochen, Germany) or detected with flow cytometry (FACS Calibur, Becton, Dickinson and Company, Franklin Lakes, NJ, USA).

MDA-MB-231 cells [5] = assay: Western blot of apoptosis proteins; type: cell-based, human; conditions: MDA-MB-231, 48 h
Method: as §1
MDA-MB-231 cells were subjected to treatment with different concentrations of 3g or 0.1% DMSO for 48 h. Subsequently, the cells were gathered, and the total protein was extracted by adding protease inhibitors and phosphatase inhibitors along with 1 × RIPA lysis buffer (Beyotime Company). The quantification of the extracted protein was carried out using a BCA kit (ComWin Biotech Company, Beijin, China). The extracted total protein, with an amount of 20 μg/well, underwent SDS–polyacrylamide gel electrophoresis (SDS-PAGE, provided by BioRad Laboratories located in Hercules, CA, USA). The protein was then wet-transferred to a PVDF membrane. Next, GLS1, Bcl-2, Bax, Cyt C, caspase-9, cleaved caspase-9, caspase-3, cleaved caspase-3, and GAPDH were incubated at 4 °C overnight. Subsequently, the secondary isotype-specific antibody, which was labeled with horseradish peroxidase, was obtained from Cell Signaling Technology. The color was developed with an ECL luminescent solution (Meilun Biotech Company, Dalian, China) and detected using a gel imager (ChemiDoc MP, BioRad Laboratories, CA, USA).

4T1 cells = assay: 4T1 transplanted tumor model in BALB/c mice
[6] = 25 and 50 mg/kg/2 days, intraperitoneal, 14 days

| SMILES | IC50 (A549) | IC50 (HepG2) | IC50 (MCF-7) | IC50 (MDA-MB-231) | fold higher activity than EP against MDA-MB-231 (MDA-MB-231; ratio of IC50 values, EP vs compound) | IC50 (human GLS1) | inhibition at 2 µM (MDA-MB-231 cells [1]) | apoptosis of MDA-MB-231 cells (MDA-MB-231 cells [2]) | glutamate production in MDA-MB-231 cells (MDA-MB-231 cells [3]) | intracellular ROS level (MDA-MB-231 cells [4]) | expression of Bax, Cyt C, cleaved caspase-9 and cleaved caspase-3 (MDA-MB-231 cells [5]) | expression of Bcl-2 (MDA-MB-231 cells [5]) | effect on body weights of the mice (4T1 cells; [6]) | tumor volume and tumor weight (4T1 cells; [6]) | tumor growth (4T1 cells; 25 and 50 mg/kg/2 days, intraperitoneal, 14 days, vs blank control) | therapeutic effect in mouse model of breast cancer (4T1 cells; dose of 50 mg/kg) | toxicity in mouse model of breast cancer (4T1 cells; dose of 50 mg/kg) | histopathological changes in heart, liver, spleen, lungs and kidneys (HE staining) (4T1 cells; tumor-bearing mice, 14 days treatment) |
| --- | --- | --- | --- | --- | --- | --- | --- | --- | --- | --- | --- | --- | --- | --- | --- | --- | --- | --- |
| COc1ccc(NC(=O)CCCC(=O)OC2CCC3(C)C4CCC5(C)C(C(C)C=CC(C)C(C)C)CCC5C45C=CC3(C2)OO5)cc1 (centres unmarked) [Compound 3g] | 13.5 ± 1.14 µM | 15.5 ± 0.63 µM | 4.57 ± 0.62 µM | 3.2 ± 0.29 µM | 5.4 fold | 3.77 µM | 56.3% | increased significantly | reduced the production of glutamate in MDA-MB-231 cells in a dose-dependent manner | significantly elevated the intracellular ROS level | significantly upregulated | decreased the expression | no significant effect | significantly reduced | effectively inhibited | remarkable therapeutic effects | no apparent toxicity | no histopathological changes |
| CC(C)C(C)C=CC(C)C1CCC2C1(C)CCC1C23C=CC2(CC(OC(=O)c4ccccc4C(=O)Nc4nc5ccc(F)cc5s4)CCC12C)OO3 (centres unmarked) [Compound 4d, Ergosterol peroxide-3-(2-((6-fluorobenzo[d]thiazol-2-yl)carbamoyl)benzoate)] | 8.99 ± 0.81 µM | 15.3 ± 1.31 µM | 10.6 ± 0.52 µM | 11.3 ± 0.44 µM | – | – | – | – | – | – | – | – | – | – | – | – | – | – |
| CC(C)C(C)C=CC(C)C1CCC2C1(C)CCC1C23C=CC2(CC(OC(=O)c4ccccc4C(=O)Nc4ccc(F)cc4)CCC12C)OO3 (centres unmarked) [Compound 4f, Ergosterol peroxide-3-(2-((4-fluorophenyl)carbamoyl)benzoate)] | 18.8 ± 0.64 µM | 9.02 ± 0.87 µM | 9.64 ± 0.51 µM | 13.4 ± 1.24 µM | – | – | – | – | – | – | – | – | – | – | – | – | – | – |
| CC(C)C(C)C=CC(C)C1CCC2C1(C)CCC1C23C=CC2(CC(OC(=O)c4ccccc4C(=O)Nc4ccc5ccccc5c4)CCC12C)OO3 (centres unmarked) [Compound 4h, Ergosterol peroxide-3-(2-(naphthalen-2-ylcarbamoyl)benzoate)] | 10.1 ± 1.16 µM | 14.3 ± 1.55 µM | 11.4 ± 0.42 µM | 14.6 ± 0.47 µM | – | – | – | – | – | – | – | – | – | – | – | – | – | – |
| CC(C)[C@@H](C)/C=C/[C@@H](C)[C@H]1CC[C@@H]2[C@]1(C)CC[C@H]1[C@]23C=C[C@]2(C[C@@H](O)CC[C@]12C)OO3 [EP, Ergosterol peroxide] | 15 ± 1.27 µM | 18.1 ± 1.71 µM | 19.4 ± 1.5 µM | 17.3 ± 1.05 µM | – | 33.7 µM | – | – | – | – | – | – | – | – | – | – | – | – |
